{"source": "patent US9707244B2", "about": "“Compositions and methods for treating conditions that affect epidermis” (Gencia Corporation, priority 2013, dated 2017)", "key": {"[1]": {"tested_on": "AG16409 untransformed human skin fibroblasts from a person", "experiment": "Cellular senescence assay (SA-β-Gal fluorometric), young fibroblasts", "assay_type": "cell-based", "details": "increasing concentration", "text": "Senescent cells show common biochemical markers such as expression of an acidic senescence-associated β-galactosidase (SA-β-Gal) activity. While senescence has been characterized primarily in cultured cells, there is also evidence that it occurs in vivo. Cells expressing markers of senescence such as SA-β-Gal have been identified in normal tissues. To determine whether modified Mitocreatine analogues may influence the scenesence in aged fibroblasts, a 96-well Cellular Senescence Assay (SA-β-Gal Fluorometric Format) Cat # CBA-231 Cell Biolabs, Inc. was employed and buffers referenced were supplied by the manufacturer and in some cases freshly prepared prior to usage according to the manufacturer's instructions.\nThe cells utilized were Human Skin Fibroblast acquired from Coriell Cell Repository. The cell line AG11073 is untransformed human skin fibroblasts from a person. The primary culture was initiated from explants of a 2 mm-punch biopsy. The cell line AG16409 was untransformed human skin fibroblasts from a person.\nCells were grown in a 96 well plate. […]\n50 μL, of the reaction mixture was removed to a 96-well plate suitable for fluorescence measurement. The reaction was stopped by adding 200 μL of Stop solution and fluorescence was measured with a fluorescence plate reader (PHERA Star FS from BMG Labtech) at 360 nm (Excitation)/465 nm (Emission)."}, "[2]": {"tested_on": "AG16409 fibroblasts from a child", "experiment": "3D collagen cell culture system, young skin fibroblasts", "assay_type": "cell-based, human", "method": "The effects of Mitocreatine on skin fibroblasts cultured in a 3D matrix to better simulate in vivo milieu were examined. The cells were visualized by phase contrast light microscopy and their biological response to different concentrations of Mitocreatine evaluated. The 3D Collagen Cell Culture System from Millipore (Catalogue number ECM 675) was utilized.\nAll liquids were prepared according to manufacturer's instructions, and kept on ice. Tissue culture plates were coated with collagen by pipetting 500 μL of chilled Collagen Gel Solution into each well of a 24 well tissue culture plate. The plate was immediately transferred to a 37° C. incubator for 60 min to initiate polymerization of the collagen.\nAfter the formation of the collagen gel, AG11073 and AG16409 cells were harvested and re-suspended at 4×10^5/mL and 1×10^6 cells were seeded onto the collagen gel. The cells were obtained using the procedure as described in Example 1.\nAfter overnight incubation at 37° C. with 5% CO2 the media was replaced with fresh media containing various doses of Mitocreatine or the vehicle. Cells were visualized daily using phase contrast microscopy.\nFibroblasts from a person were cultured on a collagen matrix. Two days after seeding, cells were treated with a Mitocreatine at increasing amounts (0, 5, 15 and 25 μL). Five days post-treatment, collagen shrinkage was assayed by means of translucency."}, "[3]": {"experiment": "RIPT (Repeat Insult Patch Test) study", "assay_type": "in vivo, human", "details": "0.1% topical formulation"}, "[4]": {"tested_on": "C57BL/6J mice", "experiment": "Forced treadmill endurance test", "assay_type": "in vivo", "details": "10, 20, 30 mg/kg p.o. once daily for 30 days", "method": "Group Setting: C57BL/6J mice were randomly assigned into five groups with different treatment started with balanced full-paw and fore-paw grip strength. Seventy five female mice were dosed at 4 PM for 30 consecutive days (qd). • 1. Vehicle (p.o. via oral gavage once daily for 30 days, n=15) • 2. Creatine (300 mg/kg, p.o. via oral gavage once daily for 30 days, n=15) • 3. Mitocreatine (10 mg/kg, p.o. via oral gavage once daily for 30 days, n=15) • 4. Mitocreatine (20 mg/kg, p.o. via oral gavage once daily for 30 days, n=15) • 5. Mitocreatine (30 mg/kg, p.o. via oral gavage once daily for 30 days, n=15). 75 mice (group 1-5) were tested on the treadmill with a previously optimized protocol as described below. The mice were habituized to the treadmill at two separate occasions, with a habituation protocol. Mice were allowed to acclimate to the testing room for at least 30 min before tested. Mice were initially placed on a treadmill running at 5 m/min for 2 minutes. The treadmill belt was set horizontally. The treadmill speed was then increased to 20 m/min in […] at steps of 5 m/min in every 10 sec with the shocking grid set at 0.2 mA. Mice were allowed to run for 20 minutes. […] The total running time until exhaustion was recorded. […] Data were expressed as Mean±S.E.M. and analyzed with one-way ANOVA followed by Bonferroni test compared to vehicle group, *P<0.05, **P<0.01 (FIG. 32)."}, "[5]": {"tested_on": "ARPE-19 cells, a retinal pigmented epithelial cell line", "experiment": "DCFDA ROS production in senescent ARPE-19 cells", "assay_type": "cell-based, human", "details": "forty-eight hours after treatment; increasing concentrations", "method": "In the present invention ARPE-19 cells were used to evaluate whether Mitocreatine improves mitochondrial parameters and reduces ROS in a cell model of AMD. The cells were prematurely senescenced according to the protocol of Glotin et al. (2008). ARPE-19 cells, a retinal pigmented epithelial cell line, were prematurely senesced according to the protocol of Glotin et al. (2008). Cells were plated in a 96 well plate for analysis of reactive oxygen species (ROS) production using DCFDA, a fluorogenic dye that is oxidized by hydroxyl, peroxyl and other ROS."}}, "note": "“Also recorded” adds a separate entry of the source."}
{"smiles": "CN(CC(=O)NCCC[P+](c1ccccc1)(c1ccccc1)c1ccccc1)C(=N)N.Cl.[Cl-]", "note": "[Mitocreatine, N^2-[ammonio(imino)methyl]-N^2-methyl-N-[3-(triphenylphosphonio)propyl] glycinamide dichloride]", "values": [{"measurement": "β-galactosidase expression/activity (senescence marker)", "setting": "[1]", "value": "this decrease failed to reach statistical significance; also recorded: statistically insignificant decrease"}, {"measurement": "collagen translucency", "setting": "[2]", "value": "No change"}, {"measurement": "allergenicity in RIPT", "setting": "[3]", "value": "hypoallergenic"}, {"measurement": "endurance (total running time)", "setting": "[4]", "value": "Increases Endurance"}, {"measurement": "ROS production", "setting": "[5]", "value": "dose-independent decrease"}]}
